Like-named read-outs stand apart in the source and are kept apart here. Starred links: 1 amine or outer side, 2 acyl side, 3 side chain; linkers in the order of their positions; H or OH if unused. Non-standard residues stand in square brackets, D forms with d. Residues, ends and D or L forms follow the SMILES beside them. *: point of attachment. NOTA = O=C(O)CN1CCN(CC(=O)O)CCN(CC(=O)*)CC1; Sta = CC(C)C[C@H](N)[C@@H](O)CC(=O)O; X2 = O=C(COc1cccc(CN[*:1])c1)[*:2]; X1 = O=C(Cc1ccccc1CCN[*:1])[*:2]; X3 = O=C(COc1ccccc1CN[*:1])[*:2]
Tests used:
[1] = system: PC-3 xenograft bearing BALB/c nu/nu mice; test: Biodistribution in BALB/c nu/nu mice bearing PC-3 xenografts; format: in vivo; settings: 2 h p.i.
Experimental: (§1) Female BALB/c nu/nu mice of 18–22 g weight were used in the study. All procedures with animals were conducted in accordance with the EU Directive 2010/63/EU for animal experiments and Swedish national legislation concerning the protection of laboratory animals. The experiments were approved by the ethics committee for animal research in Uppsala (Sweden) with permit number 5.8.18–00473/2021. Animals were housed in individually ventilated cages, under a 12-h light/dark cycle with free access to food and water.
(§2) For tumor inoculation, 8·10^6 PC-3 cells in 100 µL PBS were injected subcutaneously into the right hind leg of mice. Mouse weight and tumor size were measured every 2–3 days, and tumor volume was estimated by ellipsoid approximation. A predefined humane endpoint of the experiment was either a 15% weight loss or a tumor volume of 1000 mm^3, neither of which was reached.
(§3) Four weeks after tumor cell implantation, mice were randomized and divided into 6 groups (4 animals / group): 3 of them received treatment with ^68Ga-radiolabeled peptides, while the other 3 received the same peptides in addition to 5 nmol of non-labeled NOTA-PEG2-RM26 peptide for GRPR-blocking. Peptides were injected intravenously via the tail veins at a dose of 50 pmol (700 kBq radioactivity dose).
(§4) At 2 h post injection, mice were sacrificed by overdose of Ketamine/Xylazine anesthesia, and blood was collected by heart puncture. Then, liver, spleen, lungs, pancreas, kidneys, small intestine, stomach, tail, femur bones, tumor and muscle from the opposite legs were collected, weighed, and radioactivity was measured using a Wizard 2480 gamma counter. Data are presented as percentages of injected activity per gram of tissue (%IA/g).

[2] = Complex stability of 68Ga-labeled peptides in PBS or EDTA solution in PBS (iTLC); format: physicochemical; settings: n = 3, mean ± sd
[3] = Octanol-water distribution coefficient (LogD); format: physicochemical; settings: n-octanol/PBS; n = 3; mean ± sd
Experimental: Octanol-water distribution coefficient (LogD) was determined by adding 10 pmol of radiopeptide to an Eppendorf tube containing 500 µL of phosphate-buffered saline (PBS) and 500 µL of n-octanol. Each tube was vortexed for 2 min and centrifuged at 6000 g for 5 min. Three 100 µL fractions were collected from each phase, and their radioactivity was measured.

[4] = Biodistribution in BALB/c nu/nu mice bearing PC-3 xenografts; format: in vivo; settings: female, BALB/c nu/nu, mouse, iv, total radioactivity
Experimental: as §1, §2, §3, §4

[5] = molecular target: T1, GRPR (Homo sapiens, UniProt P30550); test: Competitive binding against [125I]I-Tyr4-bombesin on PC-3 cells; settings: natGa-loaded peptide vs [125I]I-Tyr4-bombesin, 5 h at 4 °C
T1 construct: endogenous in cells; host or cells: PC-3 human prostate cancer cells
T1 sequence (P30550 whole entry): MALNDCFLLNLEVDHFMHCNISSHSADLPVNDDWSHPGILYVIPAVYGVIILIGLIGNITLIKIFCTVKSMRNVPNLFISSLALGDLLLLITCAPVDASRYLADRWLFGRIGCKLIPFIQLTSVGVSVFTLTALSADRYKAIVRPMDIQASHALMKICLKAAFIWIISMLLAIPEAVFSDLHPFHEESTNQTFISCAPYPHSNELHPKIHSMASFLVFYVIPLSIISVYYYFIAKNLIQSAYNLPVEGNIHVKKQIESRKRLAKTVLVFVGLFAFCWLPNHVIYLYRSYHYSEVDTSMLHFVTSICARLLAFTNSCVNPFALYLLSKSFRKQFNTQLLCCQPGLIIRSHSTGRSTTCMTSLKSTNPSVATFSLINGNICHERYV
Experimental: In short, 30 nmol of the respective peptide was mixed with 10 µL of 9 mM GaCl3, 150 µL of 0.1 M HCl, and 250 µL of 1 M sodium acetate (pH 4.5). The mixture was then incubated at 70 °C for 60 min.
PC-3 cells were seeded in 12-well plates at 10^5 cells per well density and incubated overnight. Then, the media was aspirated, and cells were washed with 500 µL of cold PBS buffer, containing 1% w/v bovine serum albumin (PBS/BSA buffer). Then the cells were treated with 350 µL of cold PBS/BSA buffer, 50 µL of the metalated ligand at different concentrations (from 0 to 1000 nM), and 100 µL of [^125I]I-Tyr^4-bombesin (PerkinElmer, Waltham, MA, USA) in PBS/1% BSA buffer, at 24.6 fmol/well concentration. Cells were incubated for 5 h at 4°C to reach equilibrium of binding. After that, the supernatant was removed, cells were washed with cold PBS buffer containing 1% BSA, and collected using 1 mL of 1 M NaOH heated to 37 °C. The radioactivity was measured by a Wizard 2480 gamma counter (PerkinElmer, Waltham, MA, USA). The experiments were performed in triplicates (n = 3) and the data were fitted to the curves with a nonlinear regression model in GraphPad Prism 7.

In the case of `CC(=O)N[C@@H](CCCCNC(=O)CN1CCN(CC(=O)O)CCN(CC(=O)O)CC1)C(=O)NCCc1ccccc1CC(=O)N[C@H](Cc1ccccc1)C(=O)N[C@@H](CCC(N)=O)C(=O)N[C@@H](Cc1c[nH]c2ccccc12)C(=O)N[C@@H](C)C(=O)N[C@H](C(=O)NCC(=O)N[C@@H](Cc1c[nH]cn1)C(=O)N[C@@H](CC(C)C)[C@@H](O)CC(=O)N[C@@H](CC(C)C)C(N)=O)C(C)C` [NOTA-oET-RM26] (Ac-K(NOTA)[X1][dF]QWAVGH[Sta]L-NH2), the “peptide accumulation in the liver and lungs” value [1] is reported as “lowest activity uptake” and the tumor-to-liver ratio [1] is reported as “best tumor-to-liver ratio”.

In the case of `CC(=O)N[C@@H](CCCCNC(=O)CN1CCN(CC(=O)O)CCN(CC(=O)O)CC1)C(=O)NCc1ccccc1OCC(=O)N[C@H](Cc1ccccc1)C(=O)N[C@@H](CCC(N)=O)C(=O)N[C@@H](Cc1c[nH]c2ccccc12)C(=O)N[C@@H](C)C(=O)N[C@H](C(=O)NCC(=O)N[C@@H](Cc1c[nH]cn1)C(=O)N[C@@H](CC(C)C)[C@@H](O)CC(=O)N[C@@H](CC(C)C)C(N)=O)C(C)C` [[^68Ga]Ga-NOTA-oMA-RM26, metal not drawn] (Ac-K(NOTA)[X3][dF]QWAVGH[Sta]L-NH2), the remaining at 1 h, 1 µM ([2]; PBS buffer, pH 7.4, incubation at 37 °C for 1 h in PBS) is reported as 91.7 ± 5.1%, the “Stability in PBS with EDTA” value ([2]; incubation at 37 °C for 1 h in PBS with 1000-fold molar excess of EDTA, in % (unit assumed)) is reported as 91.3 ± 5.2 and the logD [3] is reported as -0.86 ± 0.02. It also gave a tissue uptake at 2 h ([4]; blood, 50 pmol, 2 h p.i., i.v., read-out: Radionuclide concentration, Blood) of 0.47 ± 0.17 %ID/g, a tissue uptake at 2 h ([4]; blood, Blockade (co-injection of NOTA-PEG2-RM26), 2 h, read-out: Radionuclide concentration, Blood) of 0.22 ± 0.08 %ID/g and a tissue uptake at 2 h ([4]; bone, 50 pmol, 2 h p.i., i.v., read-out: Radionuclide concentration, Bone) of 0.34 ± 0.05 %ID/g. The tissue uptake at 2 h ([4]; bone, Blockade (co-injection of NOTA-PEG2-RM26), 2 h, read-out: Radionuclide concentration, Bone) was 0.23 ± 0.03 %ID/g, the tissue uptake dose at 2 h ([4]; carcass, 50 pmol, 2 h p.i., i.v., read-out: Radionuclide quantity, Carcass) was 2.9 ± 0.4 %ID and the tissue uptake dose at 2 h ([4]; carcass, Blockade (co-injection of NOTA-PEG2-RM26), 2 h, read-out: Radionuclide quantity, Carcass) was 5.9 ± 2.7 %ID. For the same compound, the tissue uptake dose at 2 h ([4]; gastrointestinal tract, 50 pmol, 2 h p.i., i.v., read-out: Radionuclide quantity, Gastrointestinal tract) was 6.5 ± 0.7 %ID, the tissue uptake dose at 2 h ([4]; gastrointestinal tract, Blockade (co-injection of NOTA-PEG2-RM26), 2 h, read-out: Radionuclide quantity, Gastrointestinal tract) was 4.1 ± 2.1 %ID and the tissue uptake at 2 h ([4]; kidneys, 50 pmol, 2 h p.i., i.v., read-out: Radionuclide concentration, Kidneys) was 6.3 ± 0.9 %ID/g. For the same compound, the tissue uptake at 2 h ([4]; kidneys, Blockade (co-injection of NOTA-PEG2-RM26), 2 h, read-out: Radionuclide concentration, Kidneys) was 6.2 ± 1.3 %ID/g, the tissue uptake at 2 h ([4]; liver, 50 pmol, 2 h p.i., i.v., read-out: Radionuclide concentration, Liver) was 3.5 ± 0.5 %ID/g and the tissue uptake at 2 h ([4]; liver, Blockade (co-injection of NOTA-PEG2-RM26), 2 h, read-out: Radionuclide concentration, Liver) was 1.4 ± 0.4 %ID/g. For the same compound, the tissue uptake at 2 h ([4]; lungs, 50 pmol, 2 h p.i., i.v., read-out: Radionuclide concentration, Lungs) was 5.7 ± 1.5 %ID/g, the tissue uptake at 2 h ([4]; lungs, Blockade (co-injection of NOTA-PEG2-RM26), 2 h, read-out: Radionuclide concentration, Lungs) was 3.5 ± 2.2 %ID/g and the tissue uptake at 2 h ([4]; muscle, 50 pmol, 2 h p.i., i.v., read-out: Radionuclide concentration, Muscle) was 0.16 ± 0.05 %ID/g. The tissue uptake at 2 h ([4]; muscle, Blockade (co-injection of NOTA-PEG2-RM26), 2 h, read-out: Radionuclide concentration, Muscle) was 0.21 ± 0.09 %ID/g, the tissue uptake at 2 h ([4]; pancreas, 50 pmol, 2 h p.i., i.v., read-out: Radionuclide concentration, Pancreas) was 21 ± 5.2 %ID/g and the tissue uptake at 2 h ([4]; pancreas, Blockade (co-injection of NOTA-PEG2-RM26), 2 h, read-out: Radionuclide concentration, Pancreas) was 2.5 ± 0.6 %ID/g. For the same compound, the tissue uptake at 2 h ([4]; small intestine, 50 pmol, 2 h p.i., i.v., read-out: Radionuclide concentration, Small Intestines) was 3.4 ± 1.3 %ID/g, the tissue uptake at 2 h ([4]; small intestine, Blockade (co-injection of NOTA-PEG2-RM26), 2 h, read-out: Radionuclide concentration, Small Intestines) was 0.61 ± 0.13 %ID/g and the tissue uptake at 2 h ([4]; spleen, 50 pmol, 2 h p.i., i.v., read-out: Radionuclide concentration, Spleen) was 1.2 ± 0.3 %ID/g. It also gave a tissue uptake at 2 h ([4]; spleen, Blockade (co-injection of NOTA-PEG2-RM26), 2 h, read-out: Radionuclide concentration, Spleen) of 0.37 ± 0.08 %ID/g, a tissue uptake at 2 h ([4]; stomach, 50 pmol, 2 h p.i., i.v., read-out: Radionuclide concentration, Stomach) of 3.5 ± 0.7 %ID/g and a tissue uptake at 2 h ([4]; stomach, Blockade (co-injection of NOTA-PEG2-RM26), 2 h, read-out: Radionuclide concentration, Stomach) of 1.1 ± 0.7 %ID/g. It also gave a tissue uptake dose at 2 h ([4]; total (sum of the measured activities), 50 pmol, 2 h p.i., i.v., sum of the measured activities, read-out: Radionuclide quantity, Total) of 19.8 ± 2.6 %ID, a tissue uptake dose at 2 h ([4]; total, Blockade (co-injection of NOTA-PEG2-RM26), 2 h, read-out: Radionuclide quantity, Total) of 15.7 ± 2.9 %ID and a tissue uptake at 2 h ([4]; tumor (PC-3 xenograft), 50 pmol, 2 h p.i., i.v., PC-3 xenograft, read-out: Radionuclide concentration, Tumor) of 10.2 ± 2.7 %ID/g. For the same compound, the tissue uptake at 2 h ([4]; tumor (PC-3 xenograft), Blockade (co-injection of NOTA-PEG2-RM26), 2 h, read-out: Radionuclide concentration, Tumor) was 1 ± 0.4 %ID/g.

An IC50 [5] of 0.27 nM was found for `CC(=O)N[C@@H](CCCCNC(=O)CN1CCN(CC(=O)O)CCN(CC(=O)O)CC1)C(=O)NCc1cccc(OCC(=O)N[C@H](Cc2ccccc2)C(=O)N[C@@H](CCC(N)=O)C(=O)N[C@@H](Cc2c[nH]c3ccccc23)C(=O)N[C@@H](C)C(=O)N[C@H](C(=O)NCC(=O)N[C@@H](Cc2c[nH]cn2)C(=O)N[C@@H](CC(C)C)[C@@H](O)CC(=O)N[C@@H](CC(C)C)C(N)=O)C(C)C)c1` [^natGa-NOTA-mMA-RM26, metal not drawn] (Ac-K(NOTA)[X2][dF]QWAVGH[Sta]L-NH2) in this work.

An IC50 [5] of 3.4 nM was found for `CC(=O)N[C@@H](CCCCNC(=O)CN1CCN(CC(=O)O)CCN(CC(=O)O)CC1)C(=O)NCCc1ccccc1CC(=O)N[C@H](Cc1ccccc1)C(=O)N[C@@H](CCC(N)=O)C(=O)N[C@@H](Cc1c[nH]c2ccccc12)C(=O)N[C@@H](C)C(=O)N[C@H](C(=O)NCC(=O)N[C@@H](Cc1c[nH]cn1)C(=O)N[C@@H](CC(C)C)[C@@H](O)CC(=O)N[C@@H](CC(C)C)C(N)=O)C(C)C` [^natGa-NOTA-oET-RM26, metal not drawn] (Ac-K(NOTA)[X1][dF]QWAVGH[Sta]L-NH2) in this work.

An IC50 [5] of 1.3 nM was found for `CC(=O)N[C@@H](CCCCNC(=O)CN1CCN(CC(=O)O)CCN(CC(=O)O)CC1)C(=O)NCc1ccccc1OCC(=O)N[C@H](Cc1ccccc1)C(=O)N[C@@H](CCC(N)=O)C(=O)N[C@@H](Cc1c[nH]c2ccccc12)C(=O)N[C@@H](C)C(=O)N[C@H](C(=O)NCC(=O)N[C@@H](Cc1c[nH]cn1)C(=O)N[C@@H](CC(C)C)[C@@H](O)CC(=O)N[C@@H](CC(C)C)C(N)=O)C(C)C` [^natGa-NOTA-oMA-RM26, metal not drawn] (Ac-K(NOTA)[X3][dF]QWAVGH[Sta]L-NH2) in this work.

From publication PMC12332157, “A preclinical study on the influence of linkers in [^68Ga]Ga-NOTA-X-RM26 radiotracers for PET imaging of GRPR expression” (EJNMMI Research, 2025)
